Test results from article PMC9313812, “The Pseudo‐Natural Product Rhonin Targets RHOGDI” (Angewandte Chemie (International Ed. in English), 2022).

How the values were obtained:
[1] = molecular target: T1, RHOGDI1 (Homo sapiens, UniProt P52565); test: Fluorescence polarization competition with FITC-labelled GerGer-Rab1 peptide; format: binding; settings: 5 μM FITC-labelled GerGer-Rab1 peptide, 50 μM RHOGDI1
T1 construct: GST; made in house; host or cells: E. coli
Method: Figure 4 Compound 7 a is a RHOGDI1 inhibitor. a) Structure of the affinity probes 8 and 9. b) Affinity‐based enrichment of RHOGDI1 from NIH/3T3 lysates by probe 8 as compared to probe 9 and detection using a RHOGDI1 antibody. c) Competition pulldown was performed as in b in presence of S10a as a competitor. d) Structure of the fluorescent derivative 10. e) Binding of derivative 10 to RHOGDI1‐3. […] Fluorescence polarization measurements using 10 and RHOGDI1‐3. […] Representative data (n=3). P: pellet; S: supernatant. g) Competition of derivative 10 with RAC1. Fluorescence polarization measurements after adding 2 μM prenylated RAC1 or non‐prenylated RAC1 to 2 μM compound 10 and 5 μM RHOGDI1. Representative data (n=3). h) Fluorescence polarization measurements upon titration of 7 a into a mixture of 5 μM FITC‐labelled GerGer‐Rab1 peptide and 50 μM RHOGDI1.

[2] = molecular target: T2, RHOGDI1-mediated extraction of RHOA (Homo sapiens, UniProt P52565); test: Liposome sedimentation assay: displacement of prenylated GDP-bound RHOA by GST-RHOGDI1; format: biochemical; settings: 50 μM compound
T2 construct: made in house; host or cells: RHOGDI1: E. coli; prenylated RHOA: insect cells (TNAO38)
Method: Supplementary Figure S4. Compound 7a impairs RHOGDI1 function. (a) Assay setup for the liposome sedimentation assay. (b) Displacement of prenylated GDP‐bound RAC1 from synthetic liposomes by GST-RHOGDI1 in the presence or absence of 50 μM 7a was measured using liposome floatation assay. Data is representative of three independent experiments.
Liposome-containing phase represented by fluorescent colour as result of 5% fluorescent NDB-PE was analysed by Western blotting. Data are representatives of three independent […]
experiments. (c-d) Displacement of prenylated
GDP‐bound RHO GTPases (RHOA and CDC42) from synthetic liposomes by GST‐RHOGDI1 […]
liposome sedimentation assay. Data is representative of three independent experiments. P: […]
Liposome sedimentation assay
Liposomes were prepared by self-assembly of the lipids (500 μg) containing 20% (w/w) phosphatidylethanolamine, 45% (w/w) phosphatidylcholine, 20% (w/w) phosphatidylserine, 10% (w/w) cholesterol, and 5% (w/w) phosphatidylinositol 4,5-bisphosphate. […] The resulting pellet and supernatant fractions were collected and analyzed by immunoblotting. […]
The resulting samples were centrifuged at 140000 x g for 1 h at 4 °C. The upper liposome‐ containing phase (detected by fluorescent NDB‐PE) was collected and analyzed by […]

[3] = tested on: NIH/3T3 cells; test: Detection of cilia (acetylated tubulin staining); format: cell-based
Method: Supplementary Figure S6 (related to Figure 5). Characterization of compound 7l (Rhonin).
(a) GLI-responsive reporter gene assay in SHH-LIGHT2 cells. (b) Influence of Rhonin on the expression of Alpl. C3H10T1/2 cells were treated with 1.5 µM purmorphamine and the compounds for 96 h prior to RT-qPCR to detect Alpl mRNA levels. Data were normalzed to Gapdh and Ap3d1 gene levels and are mean values (n = 3) ± SD. (c) Detection of cilia in NIH/3T3 cells. NIH/3T3 cells were cultured in serum reduced (0.5 % FCS) medium for 24 h to induce cilia formation, followed by a pre-treatment of cells with different concentrations of 7l or Vismodegib or DMSO as a control in serum reduced medium. After another 24h cells were treated with 2 µM purmorphamine or DMSO as a control and with different concentrations of 7l, or Vismodegib or DMSO as a control for 24 h. […]
cilia were stained with an antibody against acetylated tubulin. SMO was marked with an anti-SMO antibody and DAPI was used to stain the nuclei. For quantification of cilia, at least 100 cilia per condition and biological replicate were analyzed for the intensity of anti-acetylated tubulin antibody staining. […] Statistical significance was evaluated using an unpaired t-test with a confidence interval of 95 % (p ≤ n.s.). […]

T2 sequence (P52565 whole entry): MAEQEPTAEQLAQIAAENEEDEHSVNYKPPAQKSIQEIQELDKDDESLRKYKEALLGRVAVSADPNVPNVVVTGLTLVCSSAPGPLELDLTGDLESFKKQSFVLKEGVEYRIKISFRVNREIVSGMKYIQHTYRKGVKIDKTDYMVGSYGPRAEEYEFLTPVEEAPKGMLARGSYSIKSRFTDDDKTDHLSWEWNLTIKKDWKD
T1 sequence (P52565 whole entry): as above

Compound: COC(=O)C1(C(CC(=O)c2ccccc2)c2ccccc2)N=C(c2ccc(Br)cc2)C2C(=O)N(C)C(=O)C21 (stereo not drawn) [7a]
- Competition with binding of RHOGDI1 to GerGer-RAB1 peptide (in words) [1]: competed
- Inhibition of RHOGDI1-mediated extraction of RHOA (in words) [2]: inhibited

Compound: COC(=O)C1(C(CC(=O)c2cccnc2)c2ccccc2)N=C(c2ccc(Br)cc2)C2C(=O)N(C)C(=O)C21 (stereo not drawn) [7l]
- Cilia formation (in words) [3]: cilia formation was not affected
